Data reported in ChEMBL document CHEMBL3046437, “Synthesis, characterization and biological evaluation of some pyridine and quinoline fused chromenone derivatives” (2012).
Converted amounts (≈) assume the structure as drawn. The source made the active and inactive calls. No cut-off for these calls is given here.

Experiments:
Format in all cases: functional
[1] = test system: Pseudomonas; experiment: Antibacterial activity against Pseudomonas phaseolicola GSPB 2828 at 100 ug/ml after 24 hr by agar diffusion method; conditions: GSPB 2828, 24 h, read-out: DIZ
[2] = test system: Pseudomonas; experiment: Antibacterial activity against Pseudomonas phaseolicola GSPB 2828 after 24 to 48 hr by two-fold serial dilution method
[3] = test system: Pseudomonas fluorescens; experiment: Antibacterial activity against Pseudomonas fluorescens S 97 after 24 to 48 hr by two-fold serial dilution method
[4] = test system: Pseudomonas fluorescens; experiment: Antibacterial activity against Pseudomonas fluorescens S 97 at 100 ug/ml after 24 hr by agar diffusion method; conditions: for zone of inhibition at 100 µg/mL: S 97, 24 h, read-out: DIZ
[5] = test system: Fusarium oxysporum; experiment: Antifungal activity against Fusarium oxysporum ATCC 16417 after 24 to 48 hr by two-fold serial dilution method
[6] = test system: Staphylococcus aureus; experiment: Antibacterial activity against Staphylococcus aureus ATCC 25923 at 100 ug/ml after 24 hr by agar diffusion method; conditions: ATCC 25923, 24 h, read-out: DIZ
[7] = test system: Staphylococcus aureus; experiment: Antibacterial activity against Staphylococcus aureus ATCC 25923 after 24 to 48 hr by two-fold serial dilution method
[8] = test system: Streptococcus pyogenes; experiment: Antibacterial activity against Streptococcus pyogenes ATCC 19615 at 100 ug/ml after 24 hr by agar diffusion method; conditions: ATCC 19615, 24 h, read-out: DIZ
[9] = test system: Fusarium oxysporum; experiment: Antifungal activity against Fusarium oxysporum ATCC 16417 at 100 ug/ml after 48 hr by agar diffusion method; conditions: for zone of inhibition at 100 µg/mL: ATCC 16417, 48 h, read-out: DIZ
[10] = test system: Aspergillus niger; experiment: Antifungal activity against Aspergillus niger MTCC 282 at 100 ug/ml after 48 hr by agar diffusion method; conditions: for zone of inhibition at 100 µg/mL: MTCC 282, 48 h, read-out: DIZ
[11] = test system: Streptococcus pyogenes; experiment: Antibacterial activity against Streptococcus pyogenes ATCC 19615 after 24 to 48 hr by two-fold serial dilution method
[12] = test system: Aspergillus niger; experiment: Antifungal activity against Aspergillus niger MTCC 282 after 24 to 48 hr by two-fold serial dilution method

Cc1ccc2oc(=O)c3cc4c(nc3c2c1)CCCC4
zone of inhibition at 100 µg/mL [1]: 14 mm
MIC [2]: 50 µg/mL (≈ 188 µM)
MIC [3]: 50 µg/mL (≈ 188 µM)
zone of inhibition at 100 µg/mL [4]: 16 mm
MIC [5]: 50 µg/mL (≈ 188 µM)
zone of inhibition at 100 µg/mL [6]: 21 mm
MIC [7]: 50 µg/mL (≈ 188 µM)
zone of inhibition at 100 µg/mL [8]: 25 mm
zone of inhibition at 100 µg/mL [9]: 17 mm
diameter of the inhibition zone (DIZ) [10]: inactive
MIC [11]: 12.5 µg/mL (≈ 47.1 µM)

Cc1ccc2oc(=O)c3cc4c(nc3c2c1)-c1ccccc1CC4
zone of inhibition at 100 µg/mL [1]: 18 mm
MIC [2]: 25 µg/mL (≈ 79.8 µM)
MIC [3]: 25 µg/mL (≈ 79.8 µM)
zone of inhibition at 100 µg/mL [4]: 18 mm
MIC [5]: 50 µg/mL (≈ 160 µM)
zone of inhibition at 100 µg/mL [6]: 23 mm
MIC [7]: 50 µg/mL (≈ 160 µM)
zone of inhibition at 100 µg/mL [8]: 17 mm
MIC [12]: 50 µg/mL (≈ 160 µM)
zone of inhibition at 100 µg/mL [9]: 17 mm
zone of inhibition at 100 µg/mL [10]: 18 mm
MIC [11]: 25 µg/mL (≈ 79.8 µM)

C[C@@H]1C[C@@H]([C@H](O)CC2CC(=O)NC(=O)C2)C(=O)[C@@H](C)C1 [CYCLOHEXIMIDE]
MIC [5]: 3.12 µg/mL (≈ 11.1 µM)
MIC [12]: 6.25 µg/mL (≈ 22.2 µM)
zone of inhibition at 100 µg/mL [9]: 43 mm
zone of inhibition at 100 µg/mL [10]: 42 mm

Cc1cccc2c1oc(=O)c1cc3c(nc12)CCC3
zone of inhibition at 100 µg/mL [1]: 19 mm
MIC [2]: 25 µg/mL (≈ 99.5 µM)
MIC [3]: 50 µg/mL (≈ 199 µM)
zone of inhibition at 100 µg/mL [4]: 14 mm
zone of inhibition at 100 µg/mL [6]: 25 mm
MIC [7]: 12.5 µg/mL (≈ 49.7 µM)
zone of inhibition at 100 µg/mL [8]: 22 mm
MIC [12]: 12.5 µg/mL (≈ 49.7 µM)
diameter of the inhibition zone (DIZ) [9]: inactive
zone of inhibition at 100 µg/mL [10]: 28 mm
MIC [11]: 12.5 µg/mL (≈ 49.7 µM)

Cc1ccc2oc(=O)c3cc4c(nc3c2c1)CCC4
zone of inhibition at 100 µg/mL [1]: 15 mm
MIC [2]: 50 µg/mL (≈ 199 µM)
MIC [3]: 25 µg/mL (≈ 99.5 µM)
zone of inhibition at 100 µg/mL [4]: 17 mm
MIC [5]: 12.5 µg/mL (≈ 49.7 µM)
zone of inhibition at 100 µg/mL [6]: 18 mm
MIC [7]: 50 µg/mL (≈ 199 µM)
zone of inhibition at 100 µg/mL [8]: 19 mm
MIC [12]: 50 µg/mL (≈ 199 µM)
zone of inhibition at 100 µg/mL [9]: 30 mm
zone of inhibition at 100 µg/mL [10]: 24 mm
MIC [11]: 50 µg/mL (≈ 199 µM)

O=c1oc2ccccc2c2nc3c(cc12)CCC3
zone of inhibition at 100 µg/mL [1]: 14 mm
MIC [2]: 50 µg/mL (≈ 211 µM)
MIC [3]: 50 µg/mL (≈ 211 µM)
zone of inhibition at 100 µg/mL [4]: 19 mm
MIC [5]: 50 µg/mL (≈ 211 µM)
zone of inhibition at 100 µg/mL [6]: 19 mm
MIC [7]: 50 µg/mL (≈ 211 µM)
zone of inhibition at 100 µg/mL [8]: 20 mm
MIC [12]: > 100 µg/mL
zone of inhibition at 100 µg/mL [9]: 18 mm
zone of inhibition at 100 µg/mL [10]: 10 mm
MIC [11]: 25 µg/mL (≈ 105 µM)

CC(=O)OCC1=C(C(=O)O)N2C(=O)[C@@H](NC(=O)Cc3cccs3)[C@H]2SC1 [CEPHALOTHIN]
zone of inhibition at 100 µg/mL [1]: 38 mm
MIC [2]: 6.25 µg/mL (≈ 15.8 µM)
MIC [3]: 6.25 µg/mL (≈ 15.8 µM)
zone of inhibition at 100 µg/mL [4]: 37 mm
zone of inhibition at 100 µg/mL [6]: 36 mm
MIC [7]: 6.25 µg/mL (≈ 15.8 µM)
zone of inhibition at 100 µg/mL [8]: 37 mm
MIC [11]: 6.25 µg/mL (≈ 15.8 µM)

O=C(N[C@H](CO)[C@H](O)c1ccc([N+](=O)[O-])cc1)C(Cl)Cl [CHLORAMPHENICOL]
zone of inhibition at 100 µg/mL [1]: 37 mm
MIC [2]: 6.25 µg/mL (≈ 19.3 µM)
MIC [3]: 6.25 µg/mL (≈ 19.3 µM)
zone of inhibition at 100 µg/mL [4]: 38 mm
zone of inhibition at 100 µg/mL [6]: 42 mm
MIC [7]: 3.12 µg/mL (≈ 9.67 µM)
zone of inhibition at 100 µg/mL [8]: 44 mm
MIC [11]: 3.12 µg/mL (≈ 9.67 µM)

O=c1oc2ccc(Cl)cc2c2nc3c(cc12)CCC3
zone of inhibition at 100 µg/mL [1]: 14 mm
MIC [2]: 100 µg/mL (≈ 368 µM)
MIC [3]: 12.5 µg/mL (≈ 46 µM)
zone of inhibition at 100 µg/mL [4]: 20 mm
MIC [5]: > 100 µg/mL
zone of inhibition at 100 µg/mL [6]: 26 mm
MIC [7]: 12.5 µg/mL (≈ 46 µM)
zone of inhibition at 100 µg/mL [8]: 24 mm
MIC [12]: 25 µg/mL (≈ 92 µM)
zone of inhibition at 100 µg/mL [9]: 8 mm
zone of inhibition at 100 µg/mL [10]: 32 mm
MIC [11]: 12.5 µg/mL (≈ 46 µM)

Cc1cccc2c1oc(=O)c1cc3c(nc12)-c1ccccc1CC3
zone of inhibition at 100 µg/mL [1]: 14 mm
MIC [2]: 50 µg/mL (≈ 160 µM)
MIC [3]: 50 µg/mL (≈ 160 µM)
zone of inhibition at 100 µg/mL [4]: 15 mm
MIC [5]: 100 µg/mL (≈ 319 µM)
zone of inhibition at 100 µg/mL [6]: 25 mm
MIC [7]: 12.5 µg/mL (≈ 39.9 µM)
zone of inhibition at 100 µg/mL [8]: 20 mm
MIC [12]: 50 µg/mL (≈ 160 µM)
zone of inhibition at 100 µg/mL [9]: 11 mm
zone of inhibition at 100 µg/mL [10]: 15 mm
MIC [11]: 12.5 µg/mL (≈ 39.9 µM)

O=c1oc2ccc(Cl)cc2c2nc3c(cc12)CCc1ccccc1-3
zone of inhibition at 100 µg/mL [1]: 15 mm
MIC [2]: 50 µg/mL (≈ 150 µM)
MIC [3]: 50 µg/mL (≈ 150 µM)
zone of inhibition at 100 µg/mL [4]: 16 mm
MIC [5]: 12.5 µg/mL (≈ 37.5 µM)
zone of inhibition at 100 µg/mL [6]: 26 mm
MIC [7]: 12.5 µg/mL (≈ 37.5 µM)
zone of inhibition at 100 µg/mL [8]: 23 mm
MIC [12]: 100 µg/mL (≈ 300 µM)
zone of inhibition at 100 µg/mL [9]: 23 mm
zone of inhibition at 100 µg/mL [10]: 8 mm
MIC [11]: 12.5 µg/mL (≈ 37.5 µM)

O=c1oc2ccccc2c2nc3c(cc12)CCCC3
zone of inhibition at 100 µg/mL [1]: 20 mm
MIC [2]: 25 µg/mL (≈ 99.5 µM)
MIC [3]: 25 µg/mL (≈ 99.5 µM)
zone of inhibition at 100 µg/mL [4]: 17 mm
MIC [5]: 12.5 µg/mL (≈ 49.7 µM)
zone of inhibition at 100 µg/mL [6]: 22 mm
MIC [7]: 25 µg/mL (≈ 99.5 µM)
zone of inhibition at 100 µg/mL [8]: 22 mm
MIC [12]: 50 µg/mL (≈ 199 µM)
zone of inhibition at 100 µg/mL [9]: 26 mm
zone of inhibition at 100 µg/mL [10]: 22 mm
MIC [11]: 50 µg/mL (≈ 199 µM)

Cc1cccc2c1oc(=O)c1cc3c(nc12)CCCC3
zone of inhibition at 100 µg/mL [1]: 19 mm
MIC [2]: 25 µg/mL (≈ 94.2 µM)
MIC [3]: 25 µg/mL (≈ 94.2 µM)
zone of inhibition at 100 µg/mL [4]: 20 mm
MIC [5]: 100 µg/mL (≈ 377 µM)
zone of inhibition at 100 µg/mL [6]: 27 mm
MIC [7]: 12.5 µg/mL (≈ 47.1 µM)
zone of inhibition at 100 µg/mL [8]: 18 mm
MIC [12]: 50 µg/mL (≈ 188 µM)
zone of inhibition at 100 µg/mL [9]: 10 mm
zone of inhibition at 100 µg/mL [10]: 25 mm
MIC [11]: 25 µg/mL (≈ 94.2 µM)

O=c1oc2ccccc2c2nc3c(cc12)CCc1ccccc1-3
zone of inhibition at 100 µg/mL [1]: 16 mm
MIC [2]: 50 µg/mL (≈ 167 µM)
MIC [3]: 25 µg/mL (≈ 83.5 µM)
zone of inhibition at 100 µg/mL [4]: 19 mm
MIC [5]: 100 µg/mL (≈ 334 µM)
zone of inhibition at 100 µg/mL [6]: 20 mm
MIC [7]: 25 µg/mL (≈ 83.5 µM)
zone of inhibition at 100 µg/mL [8]: 19 mm
MIC [12]: 12.5 µg/mL (≈ 41.8 µM)
zone of inhibition at 100 µg/mL [9]: 10 mm
zone of inhibition at 100 µg/mL [10]: 25 mm
MIC [11]: 12.5 µg/mL (≈ 41.8 µM)

O=c1oc2ccc(Cl)cc2c2nc3c(cc12)CCCC3
zone of inhibition at 100 µg/mL [1]: 18 mm
MIC [2]: 50 µg/mL (≈ 175 µM)
diameter of the inhibition zone (DIZ) [4]: inactive
MIC [5]: 50 µg/mL (≈ 175 µM)
zone of inhibition at 100 µg/mL [6]: 24 mm
MIC [7]: 12.5 µg/mL (≈ 43.7 µM)
zone of inhibition at 100 µg/mL [8]: 23 mm
MIC [12]: 50 µg/mL (≈ 175 µM)
zone of inhibition at 100 µg/mL [9]: 16 mm
zone of inhibition at 100 µg/mL [10]: 20 mm
MIC [11]: 12.5 µg/mL (≈ 43.7 µM)
